Active and inactive are the calls of the source. No cut-off for these calls is given here.
How the values were obtained:
[1] = Metabolic stability in human liver microsomes assessed as time course of compound elimination at 1 uM by HPLC; assay type: ADME, Microsome; settings: read-out: Ke (converted)
Rattus norvegicus [2] = experiment: Antitussive activity in sc dosed Sprague-Dawley rat assessed as reduction of capsaicin-induced coughing for 3 mins administered 30 mins before capsaicin challenge relative to control; assay type: functional
Rattus norvegicus [3] = experiment: Antitussive activity in ip dosed Sprague-Dawley rat assessed as reduction of capsaicin-induced coughing for 3 mins administered 30 mins before capsaicin challenge relative to control; assay type: functional
Rattus norvegicus [4] = experiment: Antitussive activity in po dosed rat assessed as reduction of coughing; assay type: functional
Mus musculus [5] = organism: Mus musculus; experiment: Selectivity for delta opioid receptor over mu opioid receptor in ddy mouse vas deferens; assay type: tissue-based
[6] = target: Mu-type opioid receptor (Mus musculus) (UniProt P42866); experiment: Antagonist activity at mu opioid receptor in ddy mouse vas deferens assessed as ratio of morphine concentration that elicit equal response in absence and presence of compound; assay type: functional
Sequence of Mu-type opioid receptor (Mus musculus) (P42866 whole entry): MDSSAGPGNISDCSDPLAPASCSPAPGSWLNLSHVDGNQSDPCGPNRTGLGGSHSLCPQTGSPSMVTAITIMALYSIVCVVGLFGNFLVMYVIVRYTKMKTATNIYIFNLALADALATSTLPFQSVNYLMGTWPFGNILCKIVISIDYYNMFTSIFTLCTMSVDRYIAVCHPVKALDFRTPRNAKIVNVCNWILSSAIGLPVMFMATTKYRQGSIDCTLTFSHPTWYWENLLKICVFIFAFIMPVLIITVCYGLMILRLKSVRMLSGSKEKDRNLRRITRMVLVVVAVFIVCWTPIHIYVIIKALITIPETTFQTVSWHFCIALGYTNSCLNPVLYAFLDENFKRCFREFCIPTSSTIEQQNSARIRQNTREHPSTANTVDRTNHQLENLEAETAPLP

[7] = target: Delta-type opioid receptor (Mus musculus) (UniProt P32300); experiment: Antagonist activity at delta opioid receptor in ddy mouse vas deferens assessed as inhibition of DPDPE-induced electrically-stimulated contraction at 10 nM pretreated for 20 mins; assay type: functional, tissue-based
Sequence of Delta-type opioid receptor (Mus musculus) (P32300 whole entry): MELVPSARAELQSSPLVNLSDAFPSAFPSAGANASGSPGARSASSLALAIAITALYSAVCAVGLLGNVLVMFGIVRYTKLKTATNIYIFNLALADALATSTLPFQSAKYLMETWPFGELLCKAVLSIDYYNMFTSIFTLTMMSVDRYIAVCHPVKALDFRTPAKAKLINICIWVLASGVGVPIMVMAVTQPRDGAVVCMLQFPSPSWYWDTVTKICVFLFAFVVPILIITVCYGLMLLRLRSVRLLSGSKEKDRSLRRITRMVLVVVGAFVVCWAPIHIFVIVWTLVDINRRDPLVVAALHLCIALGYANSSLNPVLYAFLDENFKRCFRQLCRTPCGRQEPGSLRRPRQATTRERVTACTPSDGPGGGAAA

Mus musculus [8] = organism: Mus musculus; experiment: Selectivity for delta opioid receptor over kappa opioid receptor in ddy mouse vas deferens; assay type: tissue-based
[9] = target: Delta-type opioid receptor (Mus musculus, UniProt P32300); experiment: Antagonist activity at delta opioid receptor in ddy mouse vas deferens assessed as inhibition of DPDPE-induced electrically-stimulated contraction; assay type: functional, tissue-based
Sequence of Delta-type opioid receptor (P32300 whole entry): as above

[10] = target: Mu-type opioid receptor (Mus musculus) (UniProt P42866); experiment: Antagonist activity at mu opioid receptor in ddy mouse vas deferens assessed as inhibition of morphine-induced electrically-stimulated contraction at 10 nM pretreated for 20 mins; assay type: functional, tissue-based
[11] = target: Kappa-type opioid receptor (Mus musculus, UniProt P33534); experiment: Antagonist activity at kappa opioid receptor in ddy mouse vas deferens assessed as inhibition of U-50,488H-induced electrically-stimulated contraction; assay type: functional, tissue-based; settings: read-out: pA2 (converted)
Sequence of Kappa-type opioid receptor (P33534 whole entry): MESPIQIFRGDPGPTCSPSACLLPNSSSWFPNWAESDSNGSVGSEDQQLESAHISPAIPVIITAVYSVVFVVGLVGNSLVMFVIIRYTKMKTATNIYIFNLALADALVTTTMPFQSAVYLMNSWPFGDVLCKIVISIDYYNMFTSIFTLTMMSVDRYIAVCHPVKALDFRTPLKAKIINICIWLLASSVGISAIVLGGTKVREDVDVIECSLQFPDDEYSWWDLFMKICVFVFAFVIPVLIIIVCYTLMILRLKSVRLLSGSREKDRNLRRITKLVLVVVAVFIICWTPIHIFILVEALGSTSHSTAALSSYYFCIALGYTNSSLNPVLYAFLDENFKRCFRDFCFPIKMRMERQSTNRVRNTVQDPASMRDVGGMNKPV

[12] = target: Delta-type opioid receptor (Mus musculus) (UniProt P32300); experiment: Antagonist activity at delta opioid receptor in ddy mouse vas deferens assessed as ratio of DPDPE concentration that elicit equal response in absence and presence of compound; assay type: functional
[13] = target: Kappa-type opioid receptor (Mus musculus) (UniProt P33534); experiment: Antagonist activity at kappa opioid receptor in ddy mouse vas deferens assessed as ratio of U-50,488H concentration that elicit equal response in absence and presence of compound; assay type: functional
Sequence of Kappa-type opioid receptor (Mus musculus) (P33534 whole entry): as above

Rattus norvegicus [14] = experiment: Antitussive activity in po dosed Sprague-Dawley rat assessed as inhibition of capsaicin-induced coughing for 3 mins administered 60 mins before capsaicin challenge relative to control; assay type: functional, organism-based
[15] = target: Kappa-type opioid receptor (Mus musculus) (UniProt P33534); experiment: Antagonist activity at kappa opioid receptor in ddy mouse vas deferens assessed as inhibition of U-50,488H-induced electrically-stimulated contraction at 10 nM pretreated for 20 mins; assay type: functional, tissue-based

SMILES | k el at 1 µM [1] | ED50 (Rattus norvegicus [2]) | further results
COc1ccc2c3c1c1c(n3CCC2)[C@@H]2Oc3c(O)ccc4c3[C@@]23CCN(CC2CC2)[C@H](C4)[C@]3(O)C1 | 0.000475 s⁻¹ | 8.67 µg/kg | 
COc1ccc2c3c1O[C@H]1c4c(c5cccc6c5n4CCC6)C[C@@]4(O)[C@@H](C2)N(CC2CC2)CC[C@]314.CS(=O)(=O)O | 0.00568 s⁻¹ |  | ED50 (Rattus norvegicus [3]): 2.07 µg/kg; ED50 (Rattus norvegicus [4]): 6.4 µg/kg
Oc1ccc2c3c1O[C@H]1c4c(c5ccc(Br)c6c5n4CCC6)C[C@@]4(O)[C@@H](C2)N(CC2CC2)CC[C@]314 | 0.000363 s⁻¹ | 27.4 µg/kg | 
Oc1ccc2c3c1O[C@H]1c4c(c5cc(C(F)(F)F)cc6c5n4CCC6)C[C@@]4(O)[C@@H](C2)N(CC2CC2)CC[C@]314 | 0.00027 s⁻¹ | > 1000 µg/kg | 
Oc1ccc2c3c1O[C@H]1c4c(c5cc(Br)cc6c5n4CCC6)C[C@@]4(O)[C@@H](C2)N(CC2CC2)CC[C@]314 | 0.000252 s⁻¹ | 5.05 µg/kg | 
Oc1ccc2c3c1O[C@H]1c4c(c5cc(F)cc6c5n4CCC6)C[C@@]4(O)[C@@H](C2)N(CC2CC2)CC[C@]314 | 0.00029 s⁻¹ | 1.7 µg/kg | Selectivity ratio (Mus musculus [5]): > 100; Ratio [6]: 0.98; Activity [7]: inactive; Selectivity ratio (Mus musculus [8]): > 100; IC50 [9]: 8800 nM; Kb ([9]; read-out: pA2 (converted)): 1.45 nM; Activity [10]: inactive; Kb [11]: 331 nM; Ratio [12]: 7.87; Ratio [13]: 1.03; Activity (Rattus norvegicus [14]): Dose-dependent effect; Activity [15]: inactive
Oc1ccc2c3c1O[C@H]1c4c(c5cccc6c5n4CCC6)C[C@@]4(O)[C@@H](C2)N(CC2CC2)CC[C@]314 | 0.000415 s⁻¹ | 0.2 µg/kg | 
Oc1ccc2c3c1O[C@H]1c4c(c5c(Br)ccc6c5n4CCC6)C[C@@]4(O)[C@@H](C2)N(CC2CC2)CC[C@]314 | 0.000618 s⁻¹ | 94.6 µg/kg | 
Oc1ccc2c3c1O[C@H]1c4[nH]c5ccccc5c4C[C@@]4(O)[C@@H](C2)N(CC2CC2)CC[C@]314 [NALTRINDOLE] |  |  | ED50 (Rattus norvegicus [3]): 104 µg/kg
COc1ccc2c3c1O[C@H]1c4c(c5c(C(F)(F)F)ccc6c5n4CCC6)C[C@@]4(O)[C@@H](C2)N(CC2CC2)CC[C@]314 | 0.00228 s⁻¹ |  | 
Oc1ccc2c3c1O[C@H]1c4c(c5c(Cl)ccc6c5n4CCC6)C[C@@]4(O)[C@@H](C2)N(CC2CC2)CC[C@]314 | 0.00045 s⁻¹ | 3.5 µg/kg | 
CC1(C)CCn2c3c(c4cccc1c42)C[C@@]1(O)[C@H]2Cc4ccc(O)c5c4[C@@]1(CCN2CC1CC1)[C@H]3O5 | 0.00126 s⁻¹ |  | 
COc1ccc2c3c(n4c2c1CCC4)[C@@H]1Oc2c(O)ccc4c2[C@@]12CCN(CC1CC1)[C@H](C4)[C@]2(O)C3 | 0.000437 s⁻¹ | 54.2 µg/kg | 
COc1ccc2c3c1O[C@H]1c4c(c5c(C)ccc6c5n4CCC6)C[C@@]4(O)[C@@H](C2)N(CC2CC2)CC[C@]314 | 0.00595 s⁻¹ |  | 
Oc1ccc2c3c1O[C@H]1c4c(c5cc(Cl)cc6c5n4CCC6)C[C@@]4(O)[C@@H](C2)N(CC2CC2)CC[C@]314 | 0.000295 s⁻¹ |  | ED50 (Rattus norvegicus [3]): 78.4 µg/kg
COc1ccc2c3c1O[C@H]1c4c(c5cc(F)cc6c5n4CCC6)C[C@@]4(O)C(C2)N(CC2CC2)CC[C@]314 | 0.00647 s⁻¹ |  | ED50 (Rattus norvegicus [3]): 4.73 µg/kg
COc1ccc2c3c1O[C@H]1c4c(c5cc(Br)cc6c5n4CCC6)C[C@@]4(O)[C@@H](C2)N(CC2CC2)CC[C@]314 | 0.0044 s⁻¹ |  | 
COc1cc2c3c(c1)c1c(n3CCC2)[C@@H]2Oc3c(O)ccc4c3[C@@]23CCN(CC2CC2)[C@H](C4)[C@]3(O)C1 | 0.000552 s⁻¹ | 2 µg/kg | 
COc1ccc2c3c1O[C@H]1c4c(c5cccc6c5n4CCO6)C[C@@]4(O)[C@@H](C2)N(CC2CC2)CC[C@]314 | 0.00105 s⁻¹ |  | 
Cc1ccc2c3c1c1c(n3CCC2)[C@@H]2Oc3c(O)ccc4c3[C@@]23CCN(CC2CC2)[C@H](C4)[C@]3(O)C1 | 0.000565 s⁻¹ |  | 
Oc1ccc2c3c1O[C@H]1c4c(c5cccc6c5n4CCO6)C[C@@]4(O)[C@@H](C2)N(CC2CC2)CC[C@]314 | 0.000557 s⁻¹ | 14 µg/kg | 
Oc1ccc2c3c1O[C@H]1c4c(c5cc(OC(F)(F)F)cc6c5n4CCC6)C[C@@]4(O)[C@@H](C2)N(CC2CC2)CC[C@]314 | 0.000152 s⁻¹ | > 1000 µg/kg | 
Oc1ccc2c3c1O[C@H]1c4c(c5c(C(F)(F)F)ccc6c5n4CCC6)C[C@@]4(O)[C@@H](C2)N(CC2CC2)CC[C@]314 | 0.000278 s⁻¹ | 0.355 µg/kg | 
Oc1ccc2c3c1O[C@H]1c4c(c5ccc(Cl)c6c5n4CCC6)C[C@@]4(O)[C@@H](C2)N(CC2CC2)CC[C@]314 | 0.000483 s⁻¹ | 13.8 µg/kg | 
COc1ccc2c3c1O[C@H]1c4c(c5c(OC)ccc6c5n4CCC6)C[C@@]4(O)[C@@H](C2)N(CC2CC2)CC[C@]314 | 0.00333 s⁻¹ |  | 
COc1ccc2c3c1O[C@H]1c4c(c5cccc6c5n4CCC6(C)C)C[C@@]4(O)[C@@H](C2)N(CC2CC2)CC[C@]314 | 0.00103 s⁻¹ | 12.8 µg/kg | 

— ChEMBL document CHEMBL1139426, “Design and synthesis of a metabolically stable and potent antitussive agent, a novel delta opioid receptor antagonist, TRK-851” (Bioorg Med Chem, 2008)
